Legend:
[1] = test system: mixed microbiota of three infants (fecal slurry); assay: Anaerobic culture of infant fecal microbiota with oligosaccharide substrate; assay type: cell-based, human infant feces; details: 24 h
Procedure: First, the impact of 2′-FL and HMO were examined on fresh samples of mixed microbiota of three infants. A carbohydrate-free basal medium was prepared according to Hughes (Hughes S, et al. 2008 FEMS Microbiol Ecol, 64(3): 482-93) to study the growth of fecal bacteria during fermentation of human milk oligosaccharides (HMO) or 2′-FL. This basal medium contained per liter: 2 g peptone (Oxoid Ltd., Basingstoke, UK), 2 g yeast extract (Oxoid), 0.1 g NaCl, 0.04 g K2HPO4, 0.01 g MgSO4.7H2O, 0.01 g CaCl2.6H2O, 2 g NaHCO3, 0.005 g haemin (Sigma), 0.5 g L-cysteine HCl (Sigma), 0.5 g bile salts (Oxoid), 2 ml Tween 80, 10 μl vitamin K (Sigma), and 4 ml of 0.025% (w/v) resazurin solution. Anaerobic culture methods were those described in Bryant (Bryant, M 1972 Am J Clin Nutr, 25(12): 1324-8) using Hungate culture tubes, sealed with butyl rubber septa. Media were prepared and maintained anaerobically using O2-free CO2.
Fresh fecal samples were collected from three healthy babies, identified as A, B and C, who had not received antibiotics or pre/probiotics and had no history of gastrointestinal disorder. Fresh human infant feces were added to phosphate-buffered sterile anaerobic saline solution (1:10 feces to saline), mixed in a blender for 60 s, homogenized and filtered through a double layer of sterile cheesecloth. 2 g/L 2′FL and 5 g/L HMO were dissolved for 1 hour in medium before inoculation with 10% (v/v) fecal slurry prepared as above. Hungate tubes containing 2′-FL or HMO were inoculated with fecal material, serving as the treatment. Hungate tubes containing no substrate were also inoculated with feces, to serve as negative control. All tubes were incubated at 37° C. Culture supernatant samples were taken at 24 h. All samples were stored at −20° C. for further analysis. FIGS. 1, 2 and 3 show the results. Prebiotics are associated with an increase in the numbers of microbiota, especially bifidobacteria and lactobacilli, a decrease in gut pH, and an increase in lactic acid. […] These changes are all characteristic of prebiotics.

[2] = test system: purified bacterial strains isolated from human microbiota (Table 1: Bifidobacterium longum, Bacteroides vulgatus, Bacteroides fragilis, Clostridium …); assay type: cell-based, bacterial isolates, mainly from human (infant) feces; details: for growth (optical density, OD 600 nm) of individual bacterial isolates / final culture pH of individual bacterial isolates: 2 g/L 2′-FL, 3-FL, LDFT or FOS, 5 g/L HMOS, ZMB1 medium, for most of these bacteria; for growth (optical density, OD 600 nm) of individual bacterial isolates / final culture pH of individual bacterial isolates / decrease in culture pH compared with FOS: 48 h; for growth (optical density, OD 600 nm) of individual bacterial isolates: anaerobic, 37° C.; for decrease in culture pH compared with FOS: 2 g/L each, in most cases; for production of lactic acid: summary statement, for FOS: fecal slurrys and individual bacteria of the human microbiome
[3] = test system: pathogenic strains of Campylobacter; details: background statement; cited from earlier work

Substance | pH of infant microbiota cultures ([1]; 2′-FL 2 g/L, HMOS 5 g/L, three microbial communities, FIG. 2) | lactic acid produced in infant microbiota cultures ([1]; 2′-FL 2 g/L, HMOS 5 g/L, three microbial communities, compared to controls, FIG. 3) | total bacteria (bacterial growth) in infant microbiota cultures ([1]; 2′-FL at 2 g/L, HMOS at 5 g/L, fecal slurry of 3 infants (A, B, C), 37° C., anaerobic, vs no-substrate control, FIG. 1) | growth (optical density, OD 600 nm) of individual bacterial isolates [2] | final culture pH of individual bacterial isolates [2] | decrease in culture pH compared with FOS [2] | production of lactic acid [2] | Campylobacter binding and infectivity [3]
2′-fucosyllactose [2′-FL] | pH is reduced | significantly higher amounts of lactic acid are produced compared to controls | induced an increase in total bacteria | growth was stimulated (to various degrees) | the pH of cultures decreased | at least as great | induce the production of lactic acid | inhibited
3-fucosyllactose [3-FL] | – | – | – | growth was stimulated (to various degrees) | the pH of cultures decreased | at least as great | induce the production of lactic acid | –
lactodifucotetraose [LDFT] | – | – | – | growth was stimulated (to various degrees) | the pH of cultures decreased | at least as great | induce the production of lactic acid | –

Source: US20190255083A1 (priority 2011, published 2019)
